Values of other authors in patent publication US11268059B2, “Apparatuses, systems, and methods for culturing cells” (eXo Cell, LLC, priority 2015, dated 2022).

Key:
[1] = test system: obese, diabetic yellow KK mice
BAT = settings: humans
ex vivo human adipocytes = settings: Ang II stimulation
[2] = test system: isolated adipocytes and differentiated adipocytes (diffAds)

In the case of `C[C@H](Cc1ccc2c(c1)OC(C(=O)[O-])(C(=O)[O-])O2)NC[C@H](O)c1cccc(Cl)c1.[Na+].[Na+]` [CL-316243], the effect on obesity [1] is given as “ameliorated obesity”.

For `Nc1nc(CC(=O)Nc2ccc(CCNC[C@H](O)c3ccccc3)cc2)cs1` [migrabegron], the BAT activation (BAT) is given as “activates BAT”.

In the case of `O=S(=O)(Nc1ccc(CCNC[C@H](O)c2cccnc2)cc1)c1ccc(-c2nc(-c3ccc(C(F)(F)F)cc3)cs2)cc1` [L-796568], the anti-obesity effects (obese human males) is listed as “did not generate notable anti-obesity effects” and the energy expenditure (obese human males) is listed as “improved energy expenditure”.

For “angiotensin II (DRVYIHPF; Angiotensin-2; UniProt P01019 25-32, looked up) [Ang II, angiotensin II, component of the renin-angiotensin system]”, the lipolysis (ex vivo human adipocytes) is given as “inhibited lipolysis” and the adipogenesis [2] is given as “may induce adipogenesis”.
